# Paper PMC12440775 (Frontiers in Pharmacology, 2025)
# Entries after “also recorded” stand apart in the source; their conditions may differ. Marks after values point to notes of the source that are not given here.
# Test: Safety and tolerability, single ascending dose (Part 1)
# Format: in vivo, human
# Details: for Abdominal pain / Diarrhea / Dizziness / Flatulence / Gastrointestinal disorders / Headache / Hepatobiliary disorders / Hyperbilirubinemia / Jaundice / Nausea / Nervous system disorders / Retching / Subjects with any AE / Vomiting: 6 subjects
# Method: Six volunteers received the active drug at each dose level dissolved in a polyethylene glycol (PEG)/tromethamine (TRIS)/meglumine solution, and two received a placebo. One dose level was tested within each group. Subject groups were dosed and evaluated sequentially, beginning with the lowest-dose group and proceeding stepwise to the highest-dose group. The next higher dose was administered only if no safety concerns arose during treatment of the preceding group.
# Safety was assessed throughout the study by monitoring changes in clinical laboratory parameters (e.g., serum biochemistry, hematology, and urinalysis), 12-lead electrocardiograms, or vital signs (blood pressure, pulse rate, and temperature measurements); monitoring for occurrence of AEs); and carrying out physical examinations.
smiles,measurement,setting,value
"C=C[C@@H]1C[C@]1(NC(=O)[C@@H]1C[C@@H](Oc2cc(-c3csc(NC(=O)C(C)C)n3)nc3c(Br)c(OC)ccc23)CN1C(=O)[C@@H](NC(=O)OC1CCCC1)C(C)(C)C)C(=O)O [FDV, Faldaprevir]",Subjects with increases in total bilirubin,"120 mg, Part 1",two subjects
same,Subjects with increases in total bilirubin,"240 mg, Part 1",three subjects
same,Subjects with increases in total bilirubin,"480 mg, Part 1",five subjects
same,Subjects with increases in total bilirubin,"800 mg, Part 1",six subjects
same,Subjects with increases in total bilirubin,"1,200 mg, Part 1",six subjects
same,Subjects with marked hyperbilirubinemia / indirect (unconjugated) bilirubin >3.0 mg/dL,"480-mg group, Part 1",two subjects
same,Subjects with marked hyperbilirubinemia / indirect (unconjugated) bilirubin >3.0 mg/dL,"1,200-mg group, Part 1",five subjects
same,Abdominal pain,FDV 4 mg,0 n (%)
same,Diarrhea,FDV 4 mg,0 n (%)
same,Dizziness,FDV 4 mg,0 n (%)
same,Flatulence,FDV 4 mg,0 n (%)
same,Gastrointestinal disorders,FDV 4 mg,1 (16.7) n (%)
same,Headache,FDV 4 mg,1 (16.7) n (%)
same,Hepatobiliary disorders,FDV 4 mg,0 n (%)
same,Hyperbilirubinemia,FDV 4 mg,0 n (%)
same,Jaundice,FDV 4 mg,0 n (%)
same,Nausea,FDV 4 mg,1 (16.7) n (%)
same,Nervous system disorders,FDV 4 mg,1 (16.7) n (%)
same,Retching,FDV 4 mg,0 n (%)
same,Subjects with any AE,FDV 4 mg,1 (16.7) n (%)
same,Vomiting,FDV 4 mg,0 n (%)
same,Abdominal pain,FDV 16 mg,0 n (%)
same,Diarrhea,FDV 16 mg,0 n (%)
same,Dizziness,FDV 16 mg,0 n (%)
same,Flatulence,FDV 16 mg,0 n (%)
same,Gastrointestinal disorders,FDV 16 mg,0 n (%)
same,Headache,FDV 16 mg,0 n (%)
same,Hepatobiliary disorders,FDV 16 mg,0 n (%)
same,Hyperbilirubinemia,FDV 16 mg,0 n (%)
same,Jaundice,FDV 16 mg,0 n (%)
same,Nausea,FDV 16 mg,0 n (%)
same,Nervous system disorders,FDV 16 mg,0 n (%)
same,Retching,FDV 16 mg,0 n (%)
same,Subjects with any AE,FDV 16 mg,0 n (%)
same,Vomiting,FDV 16 mg,0 n (%)
same,Abdominal pain,FDV 48 mg,0 n (%)
same,Diarrhea,FDV 48 mg,0 n (%)
same,Dizziness,FDV 48 mg,1 (16.7) n (%)
same,Flatulence,FDV 48 mg,0 n (%)
same,Gastrointestinal disorders,FDV 48 mg,0 n (%)
same,Headache,FDV 48 mg,1 (16.7) n (%)
same,Hepatobiliary disorders,FDV 48 mg,0 n (%)
same,Hyperbilirubinemia,FDV 48 mg,0 n (%)
same,Jaundice,FDV 48 mg,0 n (%)
same,Nausea,FDV 48 mg,0 n (%)
same,Nervous system disorders,FDV 48 mg,1 (16.7) n (%)
same,Retching,FDV 48 mg,0 n (%)
same,Subjects with any AE,FDV 48 mg,3 (50.0) n (%)
same,Vomiting,FDV 48 mg,0 n (%)
same,Abdominal pain,FDV 120 mg,0 n (%)
same,Diarrhea,FDV 120 mg,1 (16.7) n (%)
same,Dizziness,FDV 120 mg,0 n (%)
same,Flatulence,FDV 120 mg,0 n (%)
same,Gastrointestinal disorders,FDV 120 mg,1 (16.7) n (%)
same,Headache,FDV 120 mg,0 n (%)
same,Hepatobiliary disorders,FDV 120 mg,0 n (%)
same,Hyperbilirubinemia,FDV 120 mg,0 n (%)
same,Jaundice,FDV 120 mg,0 n (%)
same,Nausea,FDV 120 mg,0 n (%)
same,Nervous system disorders,FDV 120 mg,0 n (%)
same,Retching,FDV 120 mg,0 n (%)
same,Subjects with any AE,FDV 120 mg,1 (16.7) n (%)
same,Vomiting,FDV 120 mg,0 n (%)
same,Abdominal pain,FDV 240 mg,1 (16.7) n (%)
same,Diarrhea,FDV 240 mg,0 n (%)
same,Dizziness,FDV 240 mg,0 n (%)
same,Flatulence,FDV 240 mg,0 n (%)
same,Gastrointestinal disorders,FDV 240 mg,2 (33.3) n (%)
same,Headache,FDV 240 mg,2 (33.3) n (%)
same,Hepatobiliary disorders,FDV 240 mg,0 n (%)
same,Hyperbilirubinemia,FDV 240 mg,0 n (%)
same,Jaundice,FDV 240 mg,0 n (%)
same,Nausea,FDV 240 mg,1 (16.7) n (%)
same,Nervous system disorders,FDV 240 mg,2 (33.3) n (%)
same,Retching,FDV 240 mg,0 n (%)
same,Subjects with any AE,FDV 240 mg,5 (83.3) n (%)
same,Vomiting,FDV 240 mg,1 (16.7) n (%)
same,Abdominal pain,FDV 480 mg,0 n (%)
same,Diarrhea,FDV 480 mg,3 (50.0) n (%)
same,Dizziness,FDV 480 mg,1 (16.7) n (%)
same,Flatulence,FDV 480 mg,1 (16.7) n (%)
same,Gastrointestinal disorders,FDV 480 mg,4 (66.7) n (%)
same,Headache,FDV 480 mg,3 (50.0) n (%)
same,Hepatobiliary disorders,FDV 480 mg,2 (33.3) n (%)
same,Hyperbilirubinemia,FDV 480 mg,2 (33.3) n (%)
same,Jaundice,FDV 480 mg,0 n (%)
same,Nausea,FDV 480 mg,2 (33.3) n (%)
same,Nervous system disorders,FDV 480 mg,4 (66.7) n (%)
same,Retching,FDV 480 mg,2 (33.3) n (%)
same,Subjects with any AE,FDV 480 mg,6 (100) n (%)
same,Vomiting,FDV 480 mg,1 (16.7) n (%)
same,Abdominal pain,FDV 800 mg,1 (16.7) n (%)
same,Diarrhea,FDV 800 mg,4 (66.7) n (%)
same,Dizziness,FDV 800 mg,1 (16.7) n (%)
same,Flatulence,FDV 800 mg,0 n (%)
same,Gastrointestinal disorders,FDV 800 mg,4 (66.7) n (%)
same,Headache,FDV 800 mg,1 (16.7) n (%)
same,Hepatobiliary disorders,FDV 800 mg,0 n (%)
same,Hyperbilirubinemia,FDV 800 mg,0 n (%)
same,Jaundice,FDV 800 mg,0 n (%)
same,Nausea,FDV 800 mg,1 (16.7) n (%)
same,Nervous system disorders,FDV 800 mg,1 (16.7) n (%)
same,Retching,FDV 800 mg,0 n (%)
same,Subjects with any AE,FDV 800 mg,4 (66.7) n (%)
same,Vomiting,FDV 800 mg,0 n (%)
same,Abdominal pain,"FDV 1,200 mg",0 n (%)
same,Diarrhea,"FDV 1,200 mg",3 (50.0) n (%)
same,Dizziness,"FDV 1,200 mg",1 (16.7) n (%)
same,Flatulence,"FDV 1,200 mg",1 (16.7) n (%)
same,Gastrointestinal disorders,"FDV 1,200 mg",4 (66.7) n (%)
same,Headache,"FDV 1,200 mg",0 n (%)
same,Hepatobiliary disorders,"FDV 1,200 mg",5 (83.3) n (%)
same,Hyperbilirubinemia,"FDV 1,200 mg",5 (83.3) n (%)
same,Nausea,"FDV 1,200 mg",1 (16.7) n (%)
same,Nervous system disorders,"FDV 1,200 mg",1 (16.7) n (%)
same,Retching,"FDV 1,200 mg",1 (16.7) n (%)
same,Subjects with any AE,"FDV 1,200 mg",6 (100) n (%)
same,Vomiting,"FDV 1,200 mg",0 n (%)
same,Jaundice,"FDV 1,200 mg, mild transient jaundice of the skin and sclera",1 (16.7) ^b n (%)
same,Severe vomiting,FDV 240-mg dose group,one subject
same,Subjects with an AE after treatment with FDV,"Part 1, all FDV dose groups",26 subjects out of 48
same,Subjects with AEs with a possible relationship to the study drug according to the investigator,"Part 1, receiving FDV",19 subjects
same,Subjects with marked hyperbilirubinemia (>3.0 mg/dL),"all dose groups, Part 1",seven subjects
same,Serious AEs,during the study (both parts),no serious AEs were reported; also recorded: No serious AEs occurred
same,Tolerability,"oral solution, single doses 4–1,200 mg",generally well tolerated
same,"Changes in alanine transaminase, hemoglobin, or neutrophil count",subjects with hyperbilirubinemia or elevated total bilirubin,no clinically relevant changes
same,"Changes in vital signs, ECGs, or medical examinations",whole study,No clinically relevant changes
same,Subjects with slight elevations of direct bilirubin,"whole study, groups not specified",14 subjects
